Assay results published in ChEMBL document CHEMBL4138123, “Design, synthesis and biological evaluation of novel pyrazolochalcones as potential modulators of PI3K/Akt/mTOR pathway and inducers of apoptosis in breast cancer cells” (Eur J Med Chem, 2017).

Key:
Format in all cases: functional
MDA-MB-468 = experiment: Cytotoxicity against human MDA-MB-468 cells assessed as cell growth at 0.1 uM after 48 hrs by sulforhodamine B assay relative to control; settings: MDA-MB-468, 48 h, read-out: Activity
MDA-MB-435 [1] = experiment: Cytotoxicity against human MDA-MB-435 cells assessed as growth inhibition after 48 hrs by sulforhodamine B assay; settings: MDA-MB-435, 48 h
TK-10 = experiment: Cytotoxicity against human TK10 cells assessed as cell growth at 0.1 uM after 48 hrs by sulforhodamine B assay relative to control; settings: TK-10, 48 h, read-out: Activity
NCI-H322M = experiment: Cytotoxicity against human NCI-H322M cells assessed as cell growth at 1 uM after 48 hrs by sulforhodamine B assay relative to control; settings: read-out: Activity
K562 [2] = experiment: Cytotoxicity against human K562 cells assessed as growth inhibition after 48 hrs by sulforhodamine B assay; settings: K562, 48 h
OVCAR-4 [3] = experiment: Cytotoxicity against human OVCAR4 cells assessed as cell growth at 1 uM after 48 hrs by sulforhodamine B assay relative to control; settings: OVCAR-4, 48 h, read-out: Activity
BT-549 [4] = experiment: Cytotoxicity against human BT549 cells assessed as cell growth at 10 uM after 48 hrs by sulforhodamine B assay relative to control; settings: BT-549, 48 h, read-out: Activity
SK-OV-3 = experiment: Cytotoxicity against human SKOV3 cells assessed as cell growth at 0.01 uM after 48 hrs by sulforhodamine B assay relative to control; settings: SK-OV-3, 48 h, read-out: Activity
NCI-H460 [5] = experiment: Cytotoxicity against human NCI-H460 cells assessed as cell growth at 1 uM after 48 hrs by sulforhodamine B assay relative to control; settings: NCI-H460, 48 h, read-out: Activity
K562 [6] = experiment: Cytotoxicity against human K562 cells assessed as cell growth at 100 uM after 48 hrs by sulforhodamine B assay relative to control; settings: K562, 48 h, read-out: Activity
T47D = experiment: Cytotoxicity against human T47D cells assessed as growth inhibition after 48 hrs by sulforhodamine B assay
OVCAR-4 [7] = experiment: Cytotoxicity against human OVCAR4 cells assessed as cell growth at 10 uM after 48 hrs by sulforhodamine B assay relative to control; settings: OVCAR-4, 48 h, read-out: Activity
HOP-62 [8] = experiment: Cytotoxicity against human HOP62 cells assessed as cell growth at 100 uM after 48 hrs by sulforhodamine B assay relative to control; settings: HOP-62, 48 h, read-out: Activity
IGROV-1 = experiment: Cytotoxicity against human IGROV1 cells assessed as cell growth at 0.01 uM after 48 hrs by sulforhodamine B assay relative to control; settings: IGROV-1, 48 h, read-out: Activity
SF-539 = experiment: Cytotoxicity against human SF539 cells assessed as cell growth at 1 uM after 48 hrs by sulforhodamine B assay relative to control; settings: SF-539, 48 h, read-out: Activity
Malme-3M [9] = experiment: Cytotoxicity against human MALME-3M cells assessed as cell growth at 1 uM after 48 hrs by sulforhodamine B assay relative to control; settings: read-out: Activity
NCI-H23 [10] = experiment: Cytotoxicity against human NCI-H23 cells assessed as cell growth at 1 uM after 48 hrs by sulforhodamine B assay relative to control; settings: NCI-H23, 48 h, read-out: Activity
BT-549 [11] = experiment: Cytotoxicity against human BT549 cells assessed as cell growth at 0.1 uM after 48 hrs by sulforhodamine B assay relative to control; settings: BT-549, 48 h, read-out: Activity
HOP-62 [12] = experiment: Cytotoxicity against human HOP62 cells assessed as cell growth at 10 uM after 48 hrs by sulforhodamine B assay relative to control; settings: HOP-62, 48 h, read-out: Activity
NCI-H23 [13] = experiment: Cytotoxicity against human NCI-H23 cells assessed as cell growth at 0.01 uM after 48 hrs by sulforhodamine B assay relative to control; settings: NCI-H23, 48 h, read-out: Activity
NCI-H460 [14] = experiment: Cytotoxicity against human NCI-H460 cells assessed as cell growth at 0.1 uM after 48 hrs by sulforhodamine B assay relative to control; settings: NCI-H460, 48 h, read-out: Activity
UACC-257 = experiment: Cytotoxicity against human UACC257 cells assessed as cell growth at 0.01 uM after 48 hrs by sulforhodamine B assay relative to control; settings: UACC-257, 48 h, read-out: Activity
SR = experiment: Cytotoxicity against human SR cells assessed as cell growth at 0.01 uM after 48 hrs by sulforhodamine B assay relative to control; settings: read-out: Activity
OVCAR-3 = experiment: Cytotoxicity against human OVCAR3 cells assessed as cell growth at 0.01 uM after 48 hrs by sulforhodamine B assay relative to control; settings: OVCAR-3, 48 h, read-out: Activity
786-0 = experiment: Cytotoxicity against human 786-0 cells assessed as cell growth at 0.01 uM after 48 hrs by sulforhodamine B assay relative to control; settings: 786-0, 48 h, read-out: Activity
MCF7 = experiment: Cytotoxicity against human MCF7 cells assessed as cell growth at 100 uM after 48 hrs by sulforhodamine B assay relative to control; settings: MCF7, 48 h, read-out: Activity
SW-620 = experiment: Cytotoxicity against human SW620 cells assessed as cell growth at 100 uM after 48 hrs by sulforhodamine B assay relative to control; settings: SW-620, 48 h, read-out: Activity
K562 [15] = experiment: Cytotoxicity against human K562 cells assessed as cell growth at 10 uM after 48 hrs by sulforhodamine B assay relative to control; settings: K562, 48 h, read-out: Activity
SN12C = experiment: Cytotoxicity against human SN12C cells assessed as growth inhibition after 48 hrs by sulforhodamine B assay
OVCAR-8 = experiment: Cytotoxicity against human OVCAR8 cells assessed as cell growth at 10 uM after 48 hrs by sulforhodamine B assay relative to control; settings: OVCAR-8, 48 h, read-out: Activity
MDA-MB-435 [16] = experiment: Cytotoxicity against human MDA-MB-435 cells assessed as cell growth at 0.01 uM after 48 hrs by sulforhodamine B assay relative to control; settings: MDA-MB-435, 48 h, read-out: Activity
KM12 = experiment: Cytotoxicity against human KM12 cells assessed as cell growth at 0.1 uM after 48 hrs by sulforhodamine B assay relative to control; settings: KM12, 48 h, read-out: Activity
COLO 205 = experiment: Cytotoxicity against human COLO205 cells assessed as growth inhibition after 48 hrs by sulforhodamine B assay; settings: COLO 205, 48 h
Malme-3M [17] = experiment: Cytotoxicity against human MALME-3M cells assessed as cell growth at 0.1 uM after 48 hrs by sulforhodamine B assay relative to control; settings: read-out: Activity
OVCAR-5 = experiment: Cytotoxicity against human OVCAR5 cells assessed as cell growth at 100 uM after 48 hrs by sulforhodamine B assay relative to control; settings: OVCAR-5, 48 h, read-out: Activity
NCI-H226 = experiment: Cytotoxicity against human NCI-H226 cells assessed as cell growth at 100 uM after 48 hrs by sulforhodamine B assay relative to control; settings: NCI-H226, 48 h, read-out: Activity

Row | SMILES | growth at 0.1 µM (MDA-MB-468) [%] | LC50 (MDA-MB-435 [1]) [µM] | growth at 0.1 µM (TK-10) [%] | growth at 1 µM (NCI-H322M) [%] | LC50 (concentration killing 50% of cells) (K562 [2]) [µM] | growth at 1 µM (OVCAR-4 [3]) [%] | growth at 10 µM (BT-549 [4]) [%] | growth at 0.01 µM (SK-OV-3) [%] | growth at 1 µM (NCI-H460 [5]) [%] | growth at 100 µM (K562 [6]) [%] | LC50 (T47D) [µM] | TGI (T47D) [µM] | growth at 10 µM (OVCAR-4 [7]) [%] | growth at 100 µM (HOP-62 [8]) [%] | growth at 0.01 µM (IGROV-1) [%] | growth at 1 µM (SF-539) [%] | growth at 1 µM (Malme-3M [9]) [%] | growth at 1 µM (NCI-H23 [10]) [%] | growth at 0.1 µM (BT-549 [11]) [%] | growth at 10 µM (HOP-62 [12]) [%] | also measured
1 | COc1cc(-c2cc(/C=C/C(=O)c3ccc4c(c3)OCO4)[nH]n2)cc(OC)c1OC | 90 | > 100 | 87 | 93 | > 100 | 82 | -20 | 103 | 93 | -10 | > 100 | 17 | 27 | -70 | 98 | 86 | 94 | 97 | 99 | -38 | TGI (K562 [2]): 9.81 µM; growth at 0.01 µM (NCI-H23 [13]): 96%; growth at 0.1 µM (NCI-H460 [14]): 105%; growth at 0.01 µM (UACC-257): 86%; growth at 0.01 µM (SR): 106%; growth at 0.01 µM (OVCAR-3): 104%; growth at 0.01 µM (786-0): 96%; growth at 100 µM (MCF7): 3%; growth at 100 µM (SW-620): 1%; growth at 10 µM (K562 [15]): -1%; LC50 (SN12C): > 100 µM; TGI (SN12C): > 100 µM; growth at 10 µM (OVCAR-8): 2%; growth at 0.01 µM (MDA-MB-435 [16]): 96%; growth at 0.1 µM (KM12): 95%; LC50 (COLO 205): 7.92 µM; TGI (COLO 205): 3.85 µM; growth at 0.1 µM (Malme-3M [17]): 91%
2 | COc1cc(-c2cc(/C=C/C(=O)c3ccc(Cl)c(Cl)c3)[nH]n2)cc(OC)c1OC | 91 | > 100 | 91 | 94 | > 100 | 107 | 47 | 99 | 93 | -7 | > 100 | 15.7 | 52 | -74 | 97 | 88 | 95 | 95 | 95 | -9 | TGI (MDA-MB-435 [1]): > 100 µM; TGI (K562 [2]): 64.4 µM; growth at 0.01 µM (NCI-H23 [13]): 95%; growth at 0.1 µM (NCI-H460 [14]): 105%; growth at 0.01 µM (UACC-257): 96%; growth at 0.01 µM (SR): 104%; growth at 100 µM (OVCAR-5): 16%; growth at 0.01 µM (OVCAR-3): 103%; growth at 0.01 µM (786-0): 95%; growth at 100 µM (SW-620): -5%; growth at 10 µM (K562 [15]): 28%; LC50 (SN12C): > 100 µM; TGI (SN12C): > 100 µM; growth at 10 µM (OVCAR-8): 40%; growth at 0.01 µM (MDA-MB-435 [16]): 94%; growth at 0.1 µM (KM12): 93%; LC50 (COLO 205): > 100 µM; TGI (COLO 205): 15.8 µM; growth at 0.1 µM (Malme-3M [17]): 95%
3 | COc1ccc(C(=O)/C=C/c2cc(-c3cc(OC)c(OC)c(OC)c3)n[nH]2)cc1 | 88 | > 100 | 93 | 93 | > 100 | 80 | -65 | 100 | 85 | 1 | > 100 | 13 | -7 | -79 | 101 | 87 | 93 | 95 | 97 | -64 | TGI (MDA-MB-435 [1]): 5.69 µM; growth at 100 µM (NCI-H226): -35%; growth at 0.01 µM (NCI-H23 [13]): 93%; growth at 0.1 µM (NCI-H460 [14]): 102%; growth at 0.01 µM (UACC-257): 97%; growth at 0.01 µM (SR): 97%; growth at 100 µM (OVCAR-5): -59%; growth at 0.01 µM (OVCAR-3): 101%; growth at 0.01 µM (786-0): 98%; growth at 100 µM (MCF7): -69%; growth at 100 µM (SW-620): -39%; growth at 10 µM (K562 [15]): -17%; growth at 10 µM (OVCAR-8): -8%; growth at 0.01 µM (MDA-MB-435 [16]): 99%; growth at 0.1 µM (KM12): 94%; LC50 (COLO 205): 6.06 µM; TGI (COLO 205): 3.24 µM; growth at 0.1 µM (Malme-3M [17]): 91%
